This is an account of results in patent US4997817A, “Phyllanthostatin A” (Arizona Board of Reagents, priority 1990, dated 1991).

The test system of data set [1] is P388 murine lymphocytic leukemia. The data set is described as follows: Cell growth inhibition against P388 murine lymphocytic leukemia (in vitro PS system), NCI standard protocol. The settings on record: Mus musculus, read-out: ED50 (P388 murine lymphocytic leukemia, in vitro PS system). It counts as cell-based.
Excerpt: Hplc-uv/vis and cell growth inhibition against the P388 murine lymphocytic leukemia (in vitro PS system) were used to guide the isolation of the lignan.
A short description of data set [2]: Stability in solution at room temperature (nmr observation; MeOH solutions stored two days). It counts as physicochemical.
A short description of data set [3]: Thermal stability in DMSO-d6 (variable temperature 1H nmr). Type of data set: physicochemical. As to conditions: DMSO-d6, higher temperatures (FIGS. 2d,e); signals attributable to justicidin B appeared. The method, then:
Signals of the remaining carbons appeared as sharp single lines. These observations are explained by hindered rotation around the C-1/C-1' axis, resulting in conformational isomers. In order to provide evidence for or disprove this hypotheses, the ^1 H nmr spectra of the glycoside (shown above) were recorded in DMSO-d6 at different temperatures. Table 1 summarizes the chemical shifts observed at 25, 65, 105, 135, and 145° C. […] Room temperature (FIG. 2a) led to a complex coupling pattern that became more easily interpretable when the spectrum was recorded at 65° C. (FIG. 2b). Signals due to H-2', H-5' and H-6' broadened and disappeared when the temperature was raised (FIG. 2c). […] Other protons (not shown in FIG. 2) also appeared as single resonances at higher temperatures.

Structures are written as SMILES. In brackets after ≈: the same amount, converted by molar mass.

Consider `COc1cc2cc(COC(C)=O)c(C(=O)O[C@@H]3O[C@H](CO)[C@@H](O)[C@H](O)[C@H]3O)c(-c3ccc4c(c3)OCO4)c2cc1OC` [Phyllanthostatin A], for which the IC50 in data set [1] was found to be 4 µg/mL (≈ 6.82 µM). Also, the “justicidin B detected in stored solution” value in data set [2] (MeOH solutions, room temperature, two days) is given as “Justicidin B was also detected in MeOH solutions of glycoside stored at room temperature for two days”. Besides, in data set [2] (in solution), the stability in solution entry was “unstable in solution”. Further, the “decomposition at higher temperatures” value in data set [3] is given as “gradually decomposed”.
